A word on the Tmax: it is the time at which the peak concentration occurs. For orientation: Cmax means the peak of the concentration-time curve. The AUC is the area under the concentration-time curve, a measure of exposure. Usually AUC(0-inf) stands for the area under the concentration-time curve extrapolated to infinity.

Common to all, as to type: ADME, organism-based
What all share (set-up): dose 200 mg, route oral

Data set [1] in a line: (§1) The steady-state pharmacokinetics of itraconazole analyzed after multiple oral dosing of 16 healthy volunteers with 200 mg Itraconazole following a moderate-fat breakfast once daily for 14 days in an open-label study. The following applies: human, in vivo, dietary status Fed with moderate-fat breakfast, dose 200 mg, dosed compound id 2, dosed compound name ITRACONAZOLE, gender male and female, regimen Multiple dose, route oral, tissue Plasma.

Data set [2] deals with Homo sapiens. The description is as §1. The conditions noted are these: in vivo, po, 336 h, dietary status Fed with moderate-fat breakfast, dosed compound id 2, dosed compound name ITRACONAZOLE, gender male and female, regimen Multiple dose, tissue Plasma.
Data set [3] is described as follows: (§2) The pharmacokinetic parameters of Itraconazole after single oral administration of 200 mg Itraconzole to 9 male and 9 female healthy subjects in fasting and in fed conditions. The conditions noted are these: both, human, in vivo, dietary status Fed, dosed compound id 2, dosed compound name ITRACONAZOLE, gender male and female, regimen Single dose, tissue Plasma.

The subject of data set [4] is Homo sapiens. The description is as §2. The following applies: in vivo, po, dietary status Fasted, dosed compound id 2, dosed compound name ITRACONAZOLE, gender male and female, regimen Single dose, tissue Plasma.

With `CCC(C)n1ncn(-c2ccc(N3CCN(c4ccc(OCC5COC(Cn6cncn6)(c6ccc(Cl)cc6Cl)O5)cc4)CC3)cc2)c1=O` (configuration not stated) [ITRACONAZOLE], the Tmax in data set [1] (study dosing duration 1 day) turned out to be 4 h; in data set [3] (dose 200 mg, route oral), 4.6 h; in the data set with Homo sapiens [4] (dose 200 mg) it was 2.9 h. In addition, in data set [1] (study dosing duration 14 day, read-out: t1/2 ss (converted)), the half-life is 36.8 h. Also, the figures for the “AUC(0-24)” value with Homo sapiens [2] (study dosing duration 1 day) and with Homo sapiens [2] (study dosing duration 14 day) were 905.09 ng·h/mL and 9046.81 ng·h/mL, respectively. In addition, the Cmax ss is reported as 116.8 ng/mL with Homo sapiens [2] (study dosing duration 1 day) and 658.1 ng/mL with Homo sapiens [2] (study dosing duration 14 day). Moreover, the Cmax was 213 ng/mL in data set [3] (po, 200 mg) and 162 ng/mL in the data set on Homo sapiens [4]. Also, in data set [3] (po, 200 mg, read-out: AUC(0-inf)), the area under the curve (AUC) was 3340 ng·h/mL. Moreover, in the data set with Homo sapiens [4], the “AUC(0-inf)” value was found to be 2270 ng·h/mL.

For the origin of these results see ChEMBL document CHEMBL3832544, “DailyMed|setid=fb8a2e5b-fd23-4977-81de-a95f4af168e2 | ONMEL- itraconazole tablet|Merz Pharmaceuticals, LLC”.
